Measured values published in PubChem BioAssay (NCI).
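1) Cells in 96-well plates. 2) Compound, 48 h, 5 concentrations. 3) Linear interpolation between surrounding doses. 4) Unreached endpoint = highest concentration. TGI is the concentration that stops growth completely.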 Where a SMILES comes first, the peptide text is derived from it. The star is where a group is joined. ONb = O=[N+]([O-])c1ccc(CO*)cc1; Boc = CC(C)(C)OC(=O)*

Tests used:
Assay in all cases: NCI tumour cell line growth inhibition, 48 h
HL-60(TB) leukemia = tested on: HL-60(TB) leukemia
KM12 colon = tested on: KM12 colon
NCI-H460 lung = tested on: NCI-H460 lung
RPMI-8226 leukemia = tested on: RPMI-8226 leukemia
SF-268 CNS = tested on: SF-268 CNS
SF-539 CNS = tested on: SF-539 CNS
SK-OV-3 ovarian = tested on: SK-OV-3 ovarian
UACC-62 melanoma = tested on: UACC-62 melanoma
HOP-62 NSCLC = tested on: HOP-62 NSCLC
OVCAR-4 ovarian = tested on: OVCAR-4 ovarian

Structure (SMILES)	TGI (HL-60(TB) leukemia) [µM]	TGI (KM12 colon) [µM]	TGI (NCI-H460 lung) [µM]	TGI (RPMI-8226 leukemia) [µM]	TGI (SF-268 CNS) [µM]	TGI (SF-539 CNS) [µM]	TGI (SK-OV-3 ovarian) [µM]	TGI (UACC-62 melanoma) [µM]	TGI (HOP-62 NSCLC) [µM]	TGI (OVCAR-4 ovarian) [µM]
NC1CC2NC3CCCCC3NC2CC1N (stereo not drawn)	94.9	> 100	> 100	> 100	> 100	> 100	> 100	> 100		
Nc1[nH]c(=S)nc2snnc12	> 100	> 100	> 100	> 100	> 100	> 100	> 100	> 100	> 100	
CC(=O)N(O)[C@@H]1CC[C@H](n2cnc3c(N)ncnc32)C1		> 100	> 100	> 100	> 100	> 100	> 100	> 100	> 100	> 100
CN1C(=O)[C@@H]2[C@@H]3c4ccccc4N(S(=O)(=O)C(F)(F)F)[C@@H]3c3[nH]c4ccccc4c3[C@@H]2C1=O			> 100	> 100	> 100	> 100	> 100	> 100	> 100	> 100
CCOC(=O)C(Cl)(NC(=O)c1c(F)c(F)c(F)c(F)c1F)C(F)(F)F (stereo not drawn)	> 100	> 100		> 100	> 100	> 100	> 100	> 100	> 100	> 100
CC1OC(O[C@H]2C3C=CO[C@@H](OC4OC(CO)C(O)C(O)C4O)C3[C@@]3(COC(=O)/C=C/c4ccc(O)cc4)O[C@@H]23)C(O)C(O)C1O (stereo partly drawn)	> 100	> 100	> 100	> 100	> 100		> 100	> 100	> 100	> 100
CC(C)[Si](OC1=CCC[C@H]2NC(=O)[C@@H](Cc3ccccc3)[C@@]12C)(C(C)C)C(C)C	7.82	14.4	12.4		29.1	19.1	18.9	22.4	24.2	19.7
Cc1ccc(-n2[nH]nc(C#N)c2=O)cc1	> 100	> 100	> 100	> 100	> 100		> 100	> 100	> 100	> 100
CCCCN1C(=O)c2c(-c3sccc3N)sc(-c3sccc3N)c2C1=O		> 100	> 100	55	> 74.3	32.8	35.8	> 64.6	41.5	45.3
CCCCNC(=S)Nc1nc(C(=O)NNC(=S)NC2CCCCC2)cs1		> 100		> 100	> 100	> 100	> 100	> 100	> 100	> 100
CC(C)CC(NC(=O)OC(C)(C)C)C(=O)NC(CCC(=O)OCc1ccc([N+](=O)[O-])cc1)C(=O)OCc1ccc([N+](=O)[O-])cc1 (stereo not drawn) (Boc-Leu-Glu(ONb)-ONb; configuration not given here)	19.1		56.1	88.4	39.3	37.2		99.3	> 100	> 100
CCOC(=O)Cc1nc2sc(S(N)(=O)=O)nn2c1Br	> 100	> 100	> 100	73.5	> 100		> 100	36.1	> 100	
